Test results: ChEMBL document CHEMBL3046511, “Controlling Efficacy of Strobilurin Derivatives against Wheat Powdery Mildew and Eyespot” (J Pestic Sci, 2002)
In brackets after ≈: the same amount, converted by molar mass.

Tested on: Podosphaera fuliginea
Test: Fungicidal activity against Podosphaera fuliginea in cucumber cotyledon assessed as control of powdery mildew measured as width inhibition at 2 ppm treated 24 hr inoculation at 22 +/- 2 degC measured after 10 days by vapour-phase activity test
Type: functional
Conditions: not given

Structure (SMILES)	INH
CO/N=C(/C(=O)OC)c1ccccc1COc1ccccc1C [KRESOXIM-METHYL]	13.5 mm

Tested on: Podosphaera fuliginea
Test: Fungicidal activity against Podosphaera fuliginea in cucumber cotyledon assessed as control of powdery mildew measured as width inhibition at 7.8 ppm treated 24 hr inoculation at 22 +/- 2 degC measured after 10 days by vapour-phase activity test
Type: functional
Conditions: not given

Structure (SMILES)	INH
CNC(=O)/C(=N/OC)c1ccccc1Oc1ncc(Cl)cc1C(F)(F)F	10.7 mm
CO/N=C(/C(=O)OC)c1ccccc1COc1ccccc1C [KRESOXIM-METHYL]	<20 mm
CC(C)(C)C(=O)C(Oc1ccc(Cl)cc1)n1cncn1 (stereo unspecified) [TRIADIMEFON]	<20 mm

Tested on: Oculimacula yallundae
Test: Fungicidal activity against W-type Oculimacula yallundae assessed as inhibition of mycelial growth at 20 degC for 14 days in presence of 50 ppm flovone
Type: functional, organism-based
Conditions: not given

Structure (SMILES)	EC50
CNC(=O)/C(=N/OC)c1ccccc1Oc1ncc(Cl)cc1C(F)(F)F	0.08 ppm
CNC(=O)/C(=N/OC)c1ccccc1Oc1cc(C)ccc1C	0.03 ppm
CO/C=C(/C(=O)OC)c1ccccc1Oc1cc(Oc2ccccc2C#N)ncn1 [AZOXYSTROBIN]	0.41 ppm
CO/N=C(/C(=O)OC)c1ccccc1COc1ccccc1C [KRESOXIM-METHYL]	0.11 ppm

Same assay, conditions: Oculimacula yallundae, 336 h

Structure (SMILES)	MIC
CNC(=O)/C(=N/OC)c1ccccc1Oc1ncc(Cl)cc1C(F)(F)F	1 µg/mL
CNC(=O)/C(=N/OC)c1ccccc1Oc1cc(C)ccc1C	1 µg/mL
CO/C=C(/C(=O)OC)c1ccccc1Oc1cc(Oc2ccccc2C#N)ncn1 [AZOXYSTROBIN]	25 µg/mL
CO/N=C(/C(=O)OC)c1ccccc1COc1ccccc1C [KRESOXIM-METHYL]	5 µg/mL

Tested on: Oculimacula yallundae
Test: Fungicidal activity against W-type Oculimacula yallundae assessed as inhibition of mycelial growth at 20 degC for 14 days
Type: functional, organism-based
Conditions: not given

Structure (SMILES)	EC50
CNC(=O)/C(=N/OC)c1ccccc1Oc1ncc(Cl)cc1C(F)(F)F	0.33 ppm
CNC(=O)/C(=N/OC)c1ccccc1Oc1cc(C)ccc1C	0.13 ppm
CO/C=C(/C(=O)OC)c1ccccc1Oc1cc(Oc2ccccc2C#N)ncn1 [AZOXYSTROBIN]	3.2 ppm
OC(c1ccc(Cl)cc1)(c1cncnc1)c1ccccc1Cl (stereo unspecified) [FENARIMOL]	1.02 ppm
CO/N=C(/C(=O)OC)c1ccccc1COc1ccccc1C [KRESOXIM-METHYL]	0.79 ppm
CCCN(CCOc1c(Cl)cc(Cl)cc1Cl)C(=O)n1ccnc1 [PROCHLORAZ]	0.06 ppm
COC(=O)NC(=S)Nc1ccccc1NC(=S)NC(=O)OC [THIOPHANATE METHYL]	1.18 ppm
CC(C)(C)C(=O)C(Oc1ccc(Cl)cc1)n1cncn1 (stereo unspecified) [TRIADIMEFON]	7.81 ppm

Same assay, conditions: Oculimacula yallundae, 336 h

Structure (SMILES)	MIC
CNC(=O)/C(=N/OC)c1ccccc1Oc1ncc(Cl)cc1C(F)(F)F	< 125 µg/mL
CNC(=O)/C(=N/OC)c1ccccc1Oc1cc(C)ccc1C	< 125 µg/mL
CO/C=C(/C(=O)OC)c1ccccc1Oc1cc(Oc2ccccc2C#N)ncn1 [AZOXYSTROBIN]	< 125 µg/mL
OC(c1ccc(Cl)cc1)(c1cncnc1)c1ccccc1Cl (stereo unspecified) [FENARIMOL]	25 µg/mL (≈ 75.5 µM)
CO/N=C(/C(=O)OC)c1ccccc1COc1ccccc1C [KRESOXIM-METHYL]	< 125 µg/mL
CCCN(CCOc1c(Cl)cc(Cl)cc1Cl)C(=O)n1ccnc1 [PROCHLORAZ]	5 µg/mL (≈ 13.3 µM)
COC(=O)NC(=S)Nc1ccccc1NC(=S)NC(=O)OC [THIOPHANATE METHYL]	25 µg/mL (≈ 73 µM)
CC(C)(C)C(=O)C(Oc1ccc(Cl)cc1)n1cncn1 (stereo unspecified) [TRIADIMEFON]	< 125 µg/mL

Tested on: Podosphaera fuliginea
Test: Fungicidal activity against Podosphaera fuliginea in cucumber cotyledon assessed as control of powdery mildew measured as length inhibition at 2 ppm treated 24 hr inoculation at 22 +/- 2 degC measured after 10 days by vapour-phase activity test
Type: functional
Conditions: not given

Structure (SMILES)	INH
CO/N=C(/C(=O)OC)c1ccccc1COc1ccccc1C [KRESOXIM-METHYL]	12.7 mm

Tested on: Podosphaera fuliginea
Test: Fungicidal activity against Podosphaera fuliginea in cucumber cotyledon assessed as control of powdery mildew measured as length inhibition at 7.8 ppm treated 24 hr inoculation at 22 +/- 2 degC measured after 10 days by vapour-phase activity test
Type: functional
Conditions: not given

Structure (SMILES)	INH
CNC(=O)/C(=N/OC)c1ccccc1Oc1ncc(Cl)cc1C(F)(F)F	8.9 mm
CO/N=C(/C(=O)OC)c1ccccc1COc1ccccc1C [KRESOXIM-METHYL]	<20 mm
CC(C)(C)C(=O)C(Oc1ccc(Cl)cc1)n1cncn1 (stereo unspecified) [TRIADIMEFON]	<20 mm

Tested on: Blumeria graminis f. sp. tritici
Test: Fungicidal activity against Blumeria graminis f. sp. tritici in 2 weeks old wheat seedlings assessed as control of powdery mildew pretreated 24 hr before by foliar application at 22 +/- 2 degC under greenhouse and leaf area measured after 10 days of inoculation
Type: functional, organism-based
Conditions: not given

Structure (SMILES)	EC50
CNC(=O)/C(=N/OC)c1ccccc1Oc1ncc(Cl)cc1C(F)(F)F	0.05 ppm
CNC(=O)/C(=N/OC)c1ccccc1Oc1cc(C)ccc1C	0.07 ppm
CO/C=C(/C(=O)OC)c1ccccc1Oc1cc(Oc2ccccc2C#N)ncn1 [AZOXYSTROBIN]	1.39 ppm
OC(c1ccc(Cl)cc1)(c1cncnc1)c1ccccc1Cl (stereo unspecified) [FENARIMOL]	0.58 ppm
CO/N=C(/C(=O)OC)c1ccccc1COc1ccccc1C [KRESOXIM-METHYL]	0.95 ppm
CCCN(CCOc1c(Cl)cc(Cl)cc1Cl)C(=O)n1ccnc1 [PROCHLORAZ]	3.39 ppm
CC(C)(C)C(=O)C(Oc1ccc(Cl)cc1)n1cncn1 (stereo unspecified) [TRIADIMEFON]	1.6 ppm

Tested on: Blumeria graminis f. sp. tritici
Test: Fungicidal activity against Blumeria graminis f. sp. tritici in 2 weeks old wheat seedlings assessed as control of powdery mildew at 0.06 ppm pretreated 24 hr before by foliar application at 22 +/- 2 degC under greenhouse and leaf area measured after 10 days of inoculation
Type: functional
Conditions: not given

Structure (SMILES)	Activity
CNC(=O)/C(=N/OC)c1ccccc1Oc1ncc(Cl)cc1C(F)(F)F	50%
CNC(=O)/C(=N/OC)c1ccccc1Oc1cc(C)ccc1C	22%

Tested on: Blumeria graminis f. sp. tritici
Test: Fungicidal activity against Blumeria graminis f. sp. tritici in 2 weeks old wheat seedlings assessed as control of powdery mildew at 0.125 ppm pretreated 24 hr before by foliar application at 22 +/- 2 degC under greenhouse and leaf area measured after 10 days of inoculation
Type: functional
Conditions: not given

Structure (SMILES)	Activity
CNC(=O)/C(=N/OC)c1ccccc1Oc1ncc(Cl)cc1C(F)(F)F	60%
CNC(=O)/C(=N/OC)c1ccccc1Oc1cc(C)ccc1C	79%
CO/C=C(/C(=O)OC)c1ccccc1Oc1cc(Oc2ccccc2C#N)ncn1 [AZOXYSTROBIN]	5%
OC(c1ccc(Cl)cc1)(c1cncnc1)c1ccccc1Cl (stereo unspecified) [FENARIMOL]	0%
CO/N=C(/C(=O)OC)c1ccccc1COc1ccccc1C [KRESOXIM-METHYL]	14%
CCCN(CCOc1c(Cl)cc(Cl)cc1Cl)C(=O)n1ccnc1 [PROCHLORAZ]	0%
CC(C)(C)C(=O)C(Oc1ccc(Cl)cc1)n1cncn1 (stereo unspecified) [TRIADIMEFON]	0%

Tested on: Blumeria graminis f. sp. tritici
Test: Fungicidal activity against Blumeria graminis f. sp. tritici in 2 weeks old wheat seedlings assessed as control of powdery mildew at 0.5 ppm pretreated 24 hr before by foliar application at 22 +/- 2 degC under greenhouse and leaf area measured after 10 days of inoculation
Type: functional
Conditions: not given

Structure (SMILES)	Activity
CNC(=O)/C(=N/OC)c1ccccc1Oc1ncc(Cl)cc1C(F)(F)F	89%
CNC(=O)/C(=N/OC)c1ccccc1Oc1cc(C)ccc1C	94%
CO/C=C(/C(=O)OC)c1ccccc1Oc1cc(Oc2ccccc2C#N)ncn1 [AZOXYSTROBIN]	35%
OC(c1ccc(Cl)cc1)(c1cncnc1)c1ccccc1Cl (stereo unspecified) [FENARIMOL]	50%
CO/N=C(/C(=O)OC)c1ccccc1COc1ccccc1C [KRESOXIM-METHYL]	39%
CCCN(CCOc1c(Cl)cc(Cl)cc1Cl)C(=O)n1ccnc1 [PROCHLORAZ]	23%
CC(C)(C)C(=O)C(Oc1ccc(Cl)cc1)n1cncn1 (stereo unspecified) [TRIADIMEFON]	30%

Tested on: Blumeria graminis f. sp. tritici
Test: Fungicidal activity against Blumeria graminis f. sp. tritici in 2 weeks old wheat seedlings assessed as control of powdery mildew at 2 ppm pretreated 24 hr before by foliar application at 22 +/- 2 degC under greenhouse and leaf area measured after 10 days of inoculation
Type: functional
Conditions: not given

Structure (SMILES)	Activity
CNC(=O)/C(=N/OC)c1ccccc1Oc1ncc(Cl)cc1C(F)(F)F	96%
CNC(=O)/C(=N/OC)c1ccccc1Oc1cc(C)ccc1C	98%
CO/C=C(/C(=O)OC)c1ccccc1Oc1cc(Oc2ccccc2C#N)ncn1 [AZOXYSTROBIN]	64%
OC(c1ccc(Cl)cc1)(c1cncnc1)c1ccccc1Cl (stereo unspecified) [FENARIMOL]	84%
CO/N=C(/C(=O)OC)c1ccccc1COc1ccccc1C [KRESOXIM-METHYL]	68%
CCCN(CCOc1c(Cl)cc(Cl)cc1Cl)C(=O)n1ccnc1 [PROCHLORAZ]	57%
CC(C)(C)C(=O)C(Oc1ccc(Cl)cc1)n1cncn1 (stereo unspecified) [TRIADIMEFON]	57%

Tested on: Blumeria graminis f. sp. tritici
Test: Fungicidal activity against Blumeria graminis f. sp. tritici in 2 weeks old wheat seedlings assessed as control of powdery mildew at 7.8 ppm pretreated 24 hr before by foliar application at 22 +/- 2 degC under greenhouse and leaf area measured after 10 days of inoculation
Type: functional
Conditions: not given

Structure (SMILES)	Activity
CNC(=O)/C(=N/OC)c1ccccc1Oc1ncc(Cl)cc1C(F)(F)F	100%
CNC(=O)/C(=N/OC)c1ccccc1Oc1cc(C)ccc1C	100%
CO/C=C(/C(=O)OC)c1ccccc1Oc1cc(Oc2ccccc2C#N)ncn1 [AZOXYSTROBIN]	85%
OC(c1ccc(Cl)cc1)(c1cncnc1)c1ccccc1Cl (stereo unspecified) [FENARIMOL]	94%
CO/N=C(/C(=O)OC)c1ccccc1COc1ccccc1C [KRESOXIM-METHYL]	86%
CCCN(CCOc1c(Cl)cc(Cl)cc1Cl)C(=O)n1ccnc1 [PROCHLORAZ]	70%
CC(C)(C)C(=O)C(Oc1ccc(Cl)cc1)n1cncn1 (stereo unspecified) [TRIADIMEFON]	82%

Tested on: Blumeria graminis f. sp. tritici
Test: Fungicidal activity against Blumeria graminis f. sp. tritici in 2 weeks old wheat seedlings assessed as control of powdery mildew at 31.3 ppm pretreated 24 hr before by foliar application at 22 +/- 2 degC under greenhouse and leaf area measured after 10 days of inoculation
Type: functional
Conditions: not given

Structure (SMILES)	Activity
CNC(=O)/C(=N/OC)c1ccccc1Oc1ncc(Cl)cc1C(F)(F)F	100%
CNC(=O)/C(=N/OC)c1ccccc1Oc1cc(C)ccc1C	100%
CO/C=C(/C(=O)OC)c1ccccc1Oc1cc(Oc2ccccc2C#N)ncn1 [AZOXYSTROBIN]	87%
OC(c1ccc(Cl)cc1)(c1cncnc1)c1ccccc1Cl (stereo unspecified) [FENARIMOL]	98%
CO/N=C(/C(=O)OC)c1ccccc1COc1ccccc1C [KRESOXIM-METHYL]	92%
CCCN(CCOc1c(Cl)cc(Cl)cc1Cl)C(=O)n1ccnc1 [PROCHLORAZ]	70%
CC(C)(C)C(=O)C(Oc1ccc(Cl)cc1)n1cncn1 (stereo unspecified) [TRIADIMEFON]	94%

Tested on: Blumeria graminis f. sp. tritici
Test: Fungicidal activity against Blumeria graminis f. sp. tritici in 2 weeks old wheat seedlings assessed as control of powdery mildew at 125 ppm pretreated 24 hr before by foliar application at 22 +/- 2 degC under greenhouse and leaf area measured after 10 days of inoculation
Type: functional
Conditions: not given

Structure (SMILES)	Activity
CO/C=C(/C(=O)OC)c1ccccc1Oc1cc(Oc2ccccc2C#N)ncn1 [AZOXYSTROBIN]	95%
OC(c1ccc(Cl)cc1)(c1cncnc1)c1ccccc1Cl (stereo unspecified) [FENARIMOL]	98%
CO/N=C(/C(=O)OC)c1ccccc1COc1ccccc1C [KRESOXIM-METHYL]	100%
CCCN(CCOc1c(Cl)cc(Cl)cc1Cl)C(=O)n1ccnc1 [PROCHLORAZ]	92%
CC(C)(C)C(=O)C(Oc1ccc(Cl)cc1)n1cncn1 (stereo unspecified) [TRIADIMEFON]	99%
